Read-outs that look alike come from different tables or passages of the source.
What was measured:
[1] = tested on: HIV-1 IIIB; assay type: cell-based
[2] = tested on: HIV-1 IIIB; experiment: Antiviral activity; assay type: cell-based; details: Table 1; HIV-1 IIIB in MT-2 cells; 50% reduction in p24 production; ± SD
[3] = target: NTD of capsid; details: affinity for the NTD; cited from earlier work
[4] = tested on: HIV-1; details: cited from earlier work

With `c1cc(CN2CCCNCCNCCCNCC2)ccc1CN1CCCNCCNCCCNCC1` [AMD3100] as the molecule, how does the “infectivity of virions released in the supernatant” value ([1]; producer MT-2 cells treated with 1 μg/mL, positive control) read?
The value was “no viral infectivity”.

Which IC50 [2] does the source give for “N-Furan-2-ylmethyl-6-methoxy-N-(6-methyl-2-oxo-1,2-dihydro-quinolin-3-ylmethyl)-nicotinamide [Compound 19]” here?
The IC50 was over 24.8 µM.

Which Kd [3] does the source give for `Cc1ccc(NC(=O)NCCSCc2ccc(CN(C)C)o2)cc1Cl` [CAP-1] here?
The Kd was about 800 µM.

And the “HIV-1 inhibition in viral infectivity assays” value [4]?
The value was “dose-dependent HIV-1 inhibition”.

And the “infectivity of particles produced after treatment” value [4]?
Its value is “poorly infectious”.

What about the “inhibition of virus production” value [4] of the same molecule?
The value was “virtually no inhibition of virus production”.

For `Cc1ccc2[nH]c(=O)c(CN(Cc3ccco3)C(=O)c3ccc(Cl)cc3)cc2c1` [Compound 6], which “percentage of infectivity with respect to the untreated control” value ([1]; producer MT-2 cells treated with 2.5 μM, p24-normalized, TCID50) is on record?
Its value is “about 60%”.

And the “infectivity of virions released in the supernatant” value ([1]; producer MT-2 cells treated with 5 μM)?
The value was “no viral infectivity”.

From PMC3034313 (Bioorganic & medicinal chemistry, 2010)
